In patent US8202910B2 (Sequella, Inc., priority 2006, dated 2012):
Converted amounts (≈) assume the structure as drawn. Like-named read-outs stand apart in the source and are kept apart here.

How the values were obtained:
M. tuberculosis H37Rv [1] = experiment: MIC by BACTEC 460; assay type: cell-based, Mycobacterium tuberculosis; conditions: for MIC: Mycobacterium tuberculosis, H37RV, read-out: MIC (BACTEC)
[2] = test system: H37Rv strain of Mycobacterium tuberculosis; experiment: microbe, parasite or virus in culture; assay type: cell-based; conditions: Mycobacterium tuberculosis, H37RV; read-out: MIC
[3] = test system: RIF^R M. tuberculosis isolate 2482; experiment: microbe, parasite or virus in culture; assay type: cell-based; conditions: for concentration to which the strain was susceptible: strain 2482; for MIC (BACTEC): Strain 2482
[4] = test system: RIF^R M. tuberculosis isolate 3185; experiment: microbe, parasite or virus in culture; assay type: cell-based; conditions: for concentration to which the strain was susceptible: strain 3185
M. tuberculosis H37Rv [5] = experiment: In vivo efficacy, mice infected i.v. with M. tuberculosis, CFU in spleen and lungs; set-up: species or system C57BL/6 mice
[6] = test system: M. tuberculosis H37Rv (Pasteur); experiment: Rapid in vivo model of TB, body weight of infected mice; set-up: species or system C3H female mice; conditions: single drug alone (SQ109 10 mg/kg; RIF 2 mg/kg), by the 3 wk
M. tuberculosis H37Rv [7] = experiment: Standard chronic mouse model of tuberculosis, CFU in lung; assay type: in vivo, C57BL/6 female mice; conditions: RIF (20 mg/kg) by itself, 4 week therapy
wild type of M.tb = experiment: MIC, secondary screening, wild type; assay type: cell-based, Mycobacterium tuberculosis; conditions: Mycobacterium tuberculosis, WT
[8] = Mycobacterium tuberculosis, read-out: MIC (BACTEC)

NNC(=O)c1ccncc1 [INH, Isoniazid]
MIC (M. tuberculosis H37Rv [1]): 0.025 µg/mL (≈ 0.182 µM)
MIC [2]: 0.91 µM (≈ 0.125 µg/mL)
concentration to which the strain was susceptible [3]: 0.1 mg/L
concentration to which the strain was susceptible [4]: 0.1 mg/L
activity in spleen and lung, rank among drugs (M. tuberculosis H37Rv [5]; INH 25 mg/kg): the most active drug in both spleen and lung
decrease of load of bacteria in organs (M. tuberculosis H37Rv [5]; during 4-6 weeks of chemotherapy): 2-3 logs

CO[C@H]1/C=C/O[C@@]2(C)Oc3c(C)c(O)c4c(O)c(c(/C=N/N5CCN(C)CC5)c(O)c4c3C2=O)NC(=O)/C(C)=C\C=C\[C@H](C)[C@H](O)[C@@H](C)[C@@H](O)[C@@H](C)[C@H](OC(C)=O)[C@@H]1C [RIF, Rifampicin]
MIC (BACTEC) (M. tuberculosis H37Rv [1]; H37Rv): 0.17 µg/mL (≈ 0.207 µM)
MIC (M. tuberculosis H37Rv [1]): 0.2 µg/mL (≈ 0.243 µM)
MIC [3, 8]: > 100 µg/mL
MIC (BACTEC) ([3]; listed as Rifampicin): > 100 µg/mL
MIC (BACTEC) ([3]; listed as rifampicin): > 100 µg/mL
MIC [4, 8]: 24 µg/mL (≈ 29.2 µM)
MIC (BACTEC) ([4]; isolate 3185): 24 µg/mL (≈ 29.2 µM)
average weight [6]: 19.7 g
CFU in lung (M. tuberculosis H37Rv [7]): 5.8 log10

CC1(C)C2CCC(CNCCNCC(c3ccccc3)c3ccccc3)[C@@H]1C2 (some centres unmarked) [RL 241]
MIC (wild type of M.tb; value in brackets, read-out: MIC (or uM)): 3.34 µM
MIC (wild type of M.tb; EMB, RL241, Cmpd#59 as 2HCl salt, Cmpd#109 as 2CF3COOH salt, read-out: MIC): 1.5 µg/mL

[H]/N=C(/N)N[C@H]1[C@H](O)[C@@H](O)[C@H](O[C@@H]2O[C@@H](C)[C@](O)(C=O)[C@H]2O[C@@H]2O[C@@H](CO)[C@H](O)[C@@H](O)[C@@H]2NC)[C@@H](N/C(N)=N\[H])[C@@H]1O [SM, Streptomycin]
MIC (M. tuberculosis H37Rv [1]): 0.25 µg/mL (≈ 0.43 µM)
concentration to which the strain was susceptible [3]: 2 mg/L
concentration to which the strain was susceptible [4]: 2 mg/L
